Data set [1] relates to Spontaneously Hypertensive Rats. The data set is described as follows: Test 1: antihypertensive effects (systolic tail artery blood pressure) and heart rate in spontaneously hypertensive rats, oral. Format: in vivo, rat (male, SHR). The settings on record: for change in vivo at 1 mg/kg: Rattus norvegicus; for Change (%) in heart rate: maximum value. In outline:
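Male SHRs aged 20 weeks or older (350-430 g), with systolic pressure of 180 mmHg or higher, were used in groups of 3-4. Compounds in 0.5% methylcellulose were given orally, mostly at 1 mg/Kg. Systolic tail-artery blood pressure and heart rate were measured together as percent change.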

The nature of data set [2]: solubility in DMSO (NMR not measured). Format: physicochemical. The settings on record: HCl salt.
Another data set relates to Mouse. The experiment in a line: Test 2: acute toxicity, mouse, oral. In kind it is in vivo, male ddy-mice. As to conditions: fourteenth day. Here is the method: (§1) The acute toxicity of certain compounds of this invention were studied in the following manner.
(§2) Namely, male ddy-mice of 5 weeks of age and male Wister rats of 8 weeks of age were fasted for 18 hours and used in groups each of which was constituted of 4-5 of mice or rats. The compounds were each dissolved or suspended in a 0.5% methylcellulose solution and administered orally (P.O.). On the fourteenth day after the administration, their toxicity were judged.
(§3) Each numeral set indicates the number of dead animals/the number of teste
(§4) animals. Hyphens (--) indicate that no tests were effected.

A further data set has as its system Rat. The experiment in a line: Test 2: acute toxicity, rat, oral. In kind it is in vivo, male Wister rats. The settings on record: fourteenth day. Here is the method: as §1, §2, §3, §4
Setting [3] is: SHR, oral 1 mg/Kg, 1 hour, read-out: Antihypertensive effects, change (%) in blood pressure, 1 hour later.
[4] abbreviates: SHR, oral 1 mg/Kg, 3 hours, read-out: Antihypertensive effects, change (%) in blood pressure, 3 hours later.
[5] abbreviates: SHR, oral 1 mg/Kg, 6 hours, read-out: Antihypertensive effects, change (%) in blood pressure, 6 hours later.
[6] abbreviates: SHR, oral 1 mg/Kg, 24 hours, read-out: Antihypertensive effects, change (%) in blood pressure, 24 hours later.

Consider 6 molecules from patent publication US4734418A, “Quinazoline compounds and antihypertensives” (priority 1984, dated 1988).

Where two headings read alike, the source gives them in different places.

Regarding `COc1cc2nc(N3CCN(c4ncc5c(n4)CNC5=O)CC3)nc(N)c2cc1OC` [Example 22], the change in vivo at 1 mg/kg in data set [1] (setting [3]) was -1.5%; in data set [1] (setting [4]), -10.1%; in data set [1] (setting [5]) it was -17.1%; in data set [1] (setting [6]) it was -4%. The “Change (%) in heart rate” value in data set [1] (SHR, oral 1 mg/Kg) was “+17.7%”. In data set [2], the “solubility in DMSO” value was “insolubility”.
For `COc1cc2nc(N3CCN(c4ncc5c(n4)CN(C)C5=O)CC3)nc(N)c2cc1OC` [Example 24], the change in vivo at 1 mg/kg in data set [1] (setting [3]) is -7.2%; in data set [1] (setting [4]), -24.8%; in data set [1] (setting [5]), -28.6%; in data set [1] (setting [6]), -8.7%. Besides, the “Change (%) in heart rate” value in data set [1] (SHR, oral 1 mg/Kg) is reported as “+12.0%”. The “Acute Toxicity, number of dead animals/number of tested animals” value in the data set with Mouse (1 g/Kg P.O.), with Mouse (3 g/Kg P.O.), in the data set on Rat (1 g/Kg P.O.) and in the data set on Rat (3 g/Kg P.O.) was 0/5 each time.
As for `COc1cc2nc(N3CCN(c4ncc5c(n4)N(C)C(=O)C5)CC3)nc(N)c2cc1OC` [Example 29], the change in vivo at 1 mg/kg is -5.2% in data set [1] (setting [3]), -23% in data set [1] (setting [4]), -35.2% in data set [1] (setting [5]) and -13.1% in data set [1] (setting [6]). The “Change (%) in heart rate” value in data set [1] (SHR, oral 1 mg/Kg) is “+10.1%”. The “Acute Toxicity, number of dead animals/number of tested animals” value is recorded as 0/5 in the data set on Mouse (1 g/Kg P.O.), 0/5 in the data set on Mouse (3 g/Kg P.O.), 0/5 in the data set with Rat (1 g/Kg P.O.) and 0/4 with Rat (3 g/Kg P.O.).
Take `COC(=O)c1cnc(N2CCN(c3nc(N)c4cc(OC)c(OC)cc4n3)CC2)nc1NC(C)C` [Example 62]: the change in vivo at 1 mg/kg in data set [1] (setting [3]) is -1.4%; in data set [1] (setting [4]), -24%; in data set [1] (setting [5]), -31.3%; in data set [1] (setting [6]) it was -21.2%. Further, the “Change (%) in heart rate” value in data set [1] (SHR, oral 1 mg/Kg) is “+7.6%”. The “Acute Toxicity, number of dead animals/number of tested animals” value in the data set on Mouse (1 g/Kg P.O.) and in the data set with Rat (1 g/Kg P.O.) was 0/5 throughout.
`CCCC(=O)N1CCCN(c2nc(N)c3cc(OC)c(OC)cc3n2)CC1` [Example E-643, Bunazosin, reference compound]: the change in vivo at 1 mg/kg was -4.8% in data set [1] (setting [3]), -12% in data set [1] (setting [4]), -13.5% in data set [1] (setting [5]) and -6.7% in data set [1] (setting [6]). In data set [1] (SHR, oral 1 mg/Kg), the “Change (%) in heart rate” value is reported as “+8.8%”. In addition, the results for the “Acute Toxicity, number of dead animals/number of tested animals” value in the data set on Mouse (1 g/Kg P.O.) and with Rat (1 g/Kg P.O.) were 0/5 and 2/4, respectively.
Take `COc1cc2nc(N3CCN(C(=O)c4ccco4)CC3)nc(N)c2cc1OC` [Prazosin, prazosin, reference compound]: the change in vivo at 1 mg/kg in data set [1] (po, 1 h, read-out: Antihypertensive effects, change (%) in blood pressure, 1 hour later) is -23.6%; in data set [1] (po, 3 h, read-out: Antihypertensive effects, change (%) in blood pressure, 3 hours later) it was -25.1%; in data set [1] (po, 6 h, read-out: Antihypertensive effects, change (%) in blood pressure, 6 hours later), -24.6%; in data set [1] (po, 24 h, read-out: Antihypertensive effects, change (%) in blood pressure, 24 hours later), -5%. The “Change (%) in heart rate” value in data set [1] (SHR, oral 1 mg/Kg) is listed as “+8.0%”. Also, the “Acute Toxicity, number of dead animals/number of tested animals” value in the data set with Mouse (1 g/Kg P.O.) is 0/5; in the data set on Mouse (3 g/Kg P.O.), 0/5; in the data set with Rat (1 g/Kg P.O.) it was 0/5; in the data set with Rat (3 g/Kg P.O.), 0/3.
